Measured values published in patent publication US5547674A, “Pharmaceutical preparations derived from European mistletoe” (priority 1995, dated 1996).

Tests used:
[1] = test system: AIDS patients; details: human, in vivo; cited from earlier work
[2] = test system: reverse transcriptase; details: cited from earlier work
[3] = Weight change of tumor bearing B6C3F1 mice (toxic effects); format: in vivo; details: i.p., 98 mg/kg, qd (1,7,14,21)
Experimental: (§1) The amount of protein in the alkaloidal and viscotoxin fractions were also determined to be within the required fingerprint ranges. Anticancer activities of T4GEN were studied in animals bearing subcutaneous transplants of C3H Mammary adenocarcinoma 16/C. This tumor is maintained as a lung framed tumor in C3H female mice. In this example, tumors (1×10^6 cells) were transplanted (S.C.) in 18-20 g B6C3F1 hybrid female mice. On the following day, the tumor beating animals were randomized and separated into different treatment groups (10 mice per group). There were 15 animals in the control group who received only physiological saline during the treatment periods. The treatments (i.p.) were staged 48 hours after the transplants and given for a duration of 14 days (daily single injections).Animals were weighed on days 5, 9 and 14 to assess toxic effects. Tumors were measured on day 21 post transplants and the results are represented as tumor weights using formula [formula] (l=length of tumor, w=width of tumor expressed in mm).

[4] = test system: C3H Mammary adenocarcinoma 16/C; assay: Growth of subcutaneous transplants of C3H mammary adenocarcinoma 16/C in B6C3F1 female mice; format: in vivo; details: i.p., 98 mg/kg, qd (1,7,14,21)
Experimental: as §1

Compound	toxic side effects [1]	inhibition of reverse transcriptase [2]	Δ Wts (day 14) [3]	Tumor Weight Inhibition [4] [%]	Tumor Wts (day 21) ([4]; saline controls 0.27)	Tumor Free Animals (day 93) ([4]; saline controls 1/15)
Cc1cn([C@H]2C[C@H](N=[N+]=[N-])[C@@H](CO)O2)c(=O)[nH]c1=O [AZT, azidothymidine]	serious toxic side effects including immunosuppression	–	–	–	–	–
Nc1ccn([C@H]2CC[C@@H](CO)O2)c(=O)n1 [ddC, 2',3'-dideoxycytidine]	serious toxic side effects including immunosuppression	inhibit reverse transcriptase	–	–	–	–
OC[C@@H]1CC[C@H](n2cnc3c(O)ncnc32)O1 [ddI, 2',3'-dideoxyinosine]	serious toxic side effects including immunosuppression	inhibit reverse transcriptase	–	–	–	–
O=c1[nH]cc(F)c(=O)[nH]1 [5FIuorouracil]	–	–	+1.77 g	100	0.00	0/6
